Publication PMC10695737, “Crystal Modifications of a Cyclic Guanosine Phosphorothioate Analogue, a Drug Candidate for Retinal Neurodegenerations” (ChemistryOpen, 2023)
Converted amounts (≈) assume the structure as drawn. “And” between values parts separate entries of the source, which are not always exact repeats. Equal entries are not always repeated.

Key:
Format in all cases: physicochemical
[1] = pH-dependent solubility in basic buffer NaOH(aq); details: 0.1 M NaOH(aq) basic buffer, aqueous buffer, thermodynamic from solid, pH 13, read-out: Solubility in 0.1M NaOH(aq), mg / mL (SD)
Method: (§1) The pH‐solubility profile of cGMPSA salts and free acid was determined by phase solubility techniques.[18] Briefly, saturated mixtures of the compound were prepared by adding excess amount to 4 mL vials containing 2 mL deionized water, an acidic buffer (0.1 M HCl(aq), pH 1), or a basic buffer (0.1 M NaOH(aq), pH 13). They were allowed to equilibrate for 24 h using mild agitation before recording the pH. The clear solution was separated from the solids by filtration with a Cytiva Whatman™ Mini‐Uniprep™ polypropylene 0.45 μm filter device and diluted to an appropriate analytical concentration where needed. The sample was then analyzed by HPLC, and the solubility determined by integrating the area of the peak of interest against a standard curve. The solids were also analyzed by XRPD to record the crystal modification obtained.

[2] = Dynamic vapor sorption (DVS), water sorption as Δm; details: for Water sorption Δm: 25 °C; for change in mass (Δm): at 95 % relative humidity (maximum RH), stated in text; for Δm after desorption: equilibrated value after desorption cycles; for Observed Δm: DVS step compared to theoretical hydrate mass change; for Stable %RH range: RH range of the corresponding hydrate step on DVS
Method: The samples were analyzed at 25 °C with a Surface Measurements Systems DVS Advantage. A sample was weighted into a weighing pan and its mass was monitored while it was exposed to different relative humidities (%RH=%P/P0). Before the analysis, the weighing pan was subject to an antistatic program.
The analysis program consisted of two cycles. In each cycle, the relative humidity was increased stepwise up to 95 % RH (starting from 0 % RH, 9 steps with 10 % and one step with 5 %) and then decreased stepwise to 0 % RH again. In both sorption/desorption cycles, at each step, the sample was kept at the set relative humidity until dm/dt <0.002 %, over 15 min.

[3] = Polymorph screen, approximate solubility in solvents (UHPLC); details: thermodynamic from solid
Method: A polymorph screen was done for cGMPSA‐TEA with a similar approach. An excess of the compound was slurried in a range of solvents, typically 20–40 mg in 1 mL. For screens where enough solid material was obtained, it was analyzed by XRPD to record the crystal modification.

[4] = pH-dependent solubility in acidic buffer 0.1 M HCl(aq); details: 0.1 M HCl(aq) acidic buffer, simulated gastric fluid, thermodynamic from solid, pH 1, read-out: Solubility in 0.1M HCl(aq), µg / mL (SD)
Method: as §1

[5] = Phase solubility in deionized water (HPLC); details: for pH of mixture: aqueous solubility measurements; for solubility at 24 h: deionized water, thermodynamic from solid
Method: as §1

[6] = Thermal analysis (DSC/TGA), decomposition; details: for Onset of decomposition (DSC exotherm): DSC 25 to 300 °C, 10 °C/min
Method: Differential scanning calorimetry (DSC) analyses were carried out on a Mettler DSC822e, equipped with a Thermo Haake EK45/MT cooler. The samples were weighed into a 40 μL Al‐cup, which were then closed with a pierced lid. The sample was scanned from 25 to 300 °C, with a scan rate of 10 °C/min.
Thermogravimetric analysis (TGA) was performed on a Mettler TGA/SDTA 851e, equipped with a Haake C50P cooler. Alternatively, thermogravimetric and DSC analyses were carried out simultaneously in a Mettler Toledo TGA/DSC 3+. The samples were weighed into a 100 μL Al‐cup and this was flushed with dry nitrogen gas during the analysis. The sample was scanned from 25 to 300 °C, with a scan rate of 10 °C/min.

[7] = 0 % RH, after final desorption cycle 2 (D2)
[8] = 30 % RH, desorption cycle 2 (D2)
[9] = 60 % RH, desorption cycle 2 (D2)
[10] = 95 % RH, desorption cycle 2 (D2)
[11] = hydrate step stable over 40–70 % RH
[12] = hydrate step stable over 60–95 % RH

O=c1c2nc(Br)n(C3OC4COP(O)(=S)OC4C3O)c2nc2[nH]c(-c3ccccc3)cn12 (stereo not drawn) [cGMPSA‐TEA]
solubility at 24 h [1]: 51600 µg/mL (≈ 95500 µM)
Water sorption Δm [2, 7]: −1.0%
Water sorption Δm [2, 8]: 3.5%
Water sorption Δm ([2]; 30 % RH, sorption cycle 1 (S1)): 3.4%
Water sorption Δm [2, 9]: 4.8%
Water sorption Δm ([2]; 60 % RH, sorption cycle 1 (S1)): 4.0%
Water sorption Δm [2, 10]: 5.2%
Water sorption Δm ([2]; 95 % RH, sorption cycle 1 (S1)): 5.0%
change in mass (Δm) [2]: about 5%
solubility ([3]; aqueous with cosolvent or surfactant or cyclodextrin, solvent EtOH+H2O 1 : 1 v/v, solution): > 40000 µg/mL
solubility ([3]; aqueous with cosolvent or surfactant or cyclodextrin, solvent MeCN+H2O 1 : 1 v/v, solution): > 40000 µg/mL
solubility ([3]; aqueous with cosolvent or surfactant or cyclodextrin, solvent MeOH+H2O 1 : 1 v/v, solution): > 40000 µg/mL
solubility ([3]; aqueous with cosolvent or surfactant or cyclodextrin, solvent THF+H2O 1 : 1 v/v, solution): > 40000 µg/mL
solubility ([3]; organic solvent or mixture, solvent 2‐PrOH): 105 µg/mL (≈ 194 µM)
solubility ([3]; organic solvent or mixture, solvent Acetone): 285 µg/mL (≈ 527 µM)
solubility ([3]; organic solvent or mixture, solvent DMF, solution): > 40000 µg/mL
solubility ([3]; organic solvent or mixture, solvent DMSO, solution): > 40000 µg/mL
solubility ([3]; organic solvent or mixture, solvent Dichloromethane): 30 µg/mL (≈ 55.5 µM)
solubility ([3]; organic solvent or mixture, solvent Diethyl ether): 3 µg/mL (≈ 5.55 µM)
solubility ([3]; organic solvent or mixture, solvent Dimethoxyethane): 15 µg/mL (≈ 27.8 µM)
solubility ([3]; organic solvent or mixture, solvent Dioxane): 30 µg/mL (≈ 55.5 µM)
solubility ([3]; organic solvent or mixture, solvent EtOAc): 5 µg/mL (≈ 9.25 µM)
solubility ([3]; organic solvent or mixture, solvent EtOH): 1610 µg/mL (≈ 2980 µM)
solubility ([3]; organic solvent or mixture, solvent EtOH+THF 1 : 1 v/v, solution): > 40000 µg/mL
solubility ([3]; organic solvent or mixture, solvent MeCN): 114 µg/mL (≈ 211 µM)
solubility ([3]; organic solvent or mixture, solvent MeOH): 40 µg/mL (≈ 74 µM)
solubility ([3]; organic solvent or mixture, solvent MeTHF): 10 µg/mL (≈ 18.5 µM)
solubility ([3]; organic solvent or mixture, solvent THF): 28 µg/mL (≈ 51.8 µM)
solubility ([3]; organic solvent or mixture, solvent i‐PrOAc): 10 µg/mL (≈ 18.5 µM)
solubility ([3]; organic solvent or mixture, solvent n‐BuOH): 210 µg/mL (≈ 389 µM)
solubility at 24 h [4]: 5 µg/mL (≈ 9.25 µM)
pH of mixture ([5]; supplement): 4,38
pH at saturation solubility ([5]; deionized H2O, quadruplicates): 4.4 (±0.4)
solubility at 24 h ([5]; pH 4.38, water, supplement, read-out: Aqueous solubility measurements): 8900 µg/mL (≈ 16500 µM)
solubility at 24 h ([5]; pH 4.4, water, deionized H2O, quadruplicates, read-out: Solubility): 8800 µg/mL (≈ 16300 µM)

O=c1c2nc(Br)n([C@@H]3O[C@@H]4COP(=O)([S-])O[C@H]4[C@H]3O)c2nc2[nH]c(-c3ccccc3)cn12.[Na+] (stereo partly drawn) [cGMPSA‐Na]
Water sorption Δm [2, 7]: −0.3%
Water sorption Δm [2, 8]: 6.3%
Water sorption Δm ([2]; 30 % RH, sorption cycle 1 (S1)): 2.2%
Water sorption Δm [2, 9]: 12.5%
Water sorption Δm ([2]; 60 % RH, sorption cycle 1 (S1)): 8.1%
Water sorption Δm [2, 10]: 15.1%
Water sorption Δm ([2]; 95 % RH, sorption cycle 1 (S1)): 15.1%
Δm after desorption ([2]; 0 % RH): ~ 0
Onset of decomposition (DSC exotherm) [6]: 212 °C
pH of mixture ([5]; supplement): 5,45
pH at saturation solubility ([5]; deionized H2O, quadruplicates): 5.5 (±0.2)
solubility ([5]; deionized H2O, quadruplicates): 38.4 (±11.1) mg/mL
solubility ([5]; deionized H2O, quadruplicates, listed as sodium): 38 mg/mL
solubility ([5]; deionized H2O, quadruplicates, listed as ‐Na): approximately 40 mg/mL

N.O=c1c2nc(Br)n([C@@H]3O[C@@H]4COP(=O)(S)O[C@H]4[C@H]3O)c2nc2[nH]c(-c3ccccc3)cn12 (stereo partly drawn) [cGMPSA‐NH4]
pH of mixture ([5]; supplement): 3,16
pH at saturation solubility ([5]; deionized H2O, quadruplicates): 3.2 (±0.1)
solubility ([5]; deionized H2O, quadruplicates): 7.9 (±8.0) mg/mL

NC(CO)(CO)CO.O=c1c2nc(Br)n([C@@H]3O[C@@H]4CO[P@@](O)(=S)O[C@H]4[C@H]3O)c2nc2[nH]c(-c3ccccc3)cn12 [cGMPSA‐Tris, Tris(hydroxymethyl)aminomethane RP-8-Bromo-β-phenyl-1,N2-ethenoguanosine-3′,5′-cyclicmonophosphorothiotic acid]
Water sorption Δm [2, 7]: 3.3%
Water sorption Δm [2, 8]: 5.5%
Water sorption Δm ([2]; 30 % RH, sorption cycle 1 (S1)): 4.9%
Water sorption Δm [2, 9]: 6.8%
Water sorption Δm ([2]; 60 % RH, sorption cycle 1 (S1)): 6.0%
Water sorption Δm [2, 10]: 32.4%
Water sorption Δm ([2]; 95 % RH, sorption cycle 1 (S1)): 32.8%
Observed Δm [2]: 3.3%
Stable %RH range [2]: 0–70 %RH
change in mass (Δm) [2]: 32%
initial early sorption Δm ([2]; consistent with 1 equivalent of H2O): ~3%
Δm after desorption ([2]; 0 % RH): 3.3
pH of mixture ([5]; supplement): 8,45
pH at saturation solubility ([5]; deionized H2O, quadruplicates): 8.5 (±0.1)
solubility ([5]; deionized H2O, quadruplicates): 13.5 (±3.5) mg/mL
solubility ([5]; deionized H2O, quadruplicates, listed as ‐Tris): ~15 mg/mL

O=c1c2nc(Br)n([C@@H]3O[C@@H]4CO[P@@](O)(=S)O[C@H]4[C@H]3O)c2nc2[nH]c(-c3ccccc3)cn12.c1ccc(CCNCc2ccccc2)cc1 [cGMPSA‐Bnet, N-(Phenylmethyl)benzeneethanammonium RP-8-Bromo-β-phenyl-1,N2-ethenoguanosine-3′,5′-cyclicmonophosphorothioate]
Water sorption Δm [2, 7]: 0.7%
Water sorption Δm [2, 8]: 4.4%
Water sorption Δm ([2]; 30 % RH, sorption cycle 1 (S1)): 3.4%
Water sorption Δm [2, 9]: 6.1%
Water sorption Δm ([2]; 60 % RH, sorption cycle 1 (S1)): 5.2%
Water sorption Δm [2, 10]: 7.7%
Water sorption Δm ([2]; 95 % RH, sorption cycle 1 (S1)): 8.0%
pH of mixture ([5]; supplement): 7,17
pH at saturation solubility ([5]; deionized H2O, quadruplicates): 7.2 (±0.04)
solubility ([5]; deionized H2O, quadruplicates): 0.05 (±0.03) mg/mL

O=c1c2nc(Br)n([C@@H]3O[C@@H]4CO[P@@](O)(=S)O[C@H]4[C@H]3O)c2nc2[nH]c(-c3ccccc3)cn12.O=c1c2nc(Br)n([C@@H]3O[C@@H]4CO[P@@](O)(=S)O[C@H]4[C@H]3O)c2nc2[nH]c(-c3ccccc3)cn12.c1ccc(CNCCNCc2ccccc2)cc1 [cGMPSA‐BZ, N,N′-Dibenzylethylenediammonium RP-8-Bromo-β-phenyl-1,N2-ethenoguanosine-3′,5′-cyclicmonophosphorothioate (1:2)]
Water sorption Δm [2, 7]: −0.2%
Water sorption Δm [2, 8]: 0.7%
Water sorption Δm ([2]; 30 % RH, sorption cycle 1 (S1)): 0.6%
Water sorption Δm [2, 9]: 3.9%
Water sorption Δm ([2]; 60 % RH, sorption cycle 1 (S1)): 1.9%
Water sorption Δm [2, 10]: 4.7%
Water sorption Δm ([2]; 95 % RH, sorption cycle 1 (S1)): 4.8%
Observed Δm [2, 11]: 1.3%
Observed Δm [2, 12]: 3.9%
Stable %RH range [2, 11]: 40–70 %RH
Stable %RH range [2, 12]: 60–95 %RH
change in mass (Δm) [2]: 5%
change in mass (Δm) ([2]; listed as ‐BZ): about 5%
pH of mixture ([5]; supplement): 6,81
pH at saturation solubility ([5]; deionized H2O, quadruplicates): 6.8 (±0.1)
solubility ([5]; deionized H2O, quadruplicates): 0.01 (±0.01) mg/mL

O=c1c2nc(Br)n([C@@H]3O[C@@H]4COP(=O)([S-])O[C@H]4[C@H]3O)c2nc2[nH]c(-c3ccccc3)cn12.O=c1c2nc(Br)n([C@@H]3O[C@@H]4COP(=O)([S-])O[C@H]4[C@H]3O)c2nc2[nH]c(-c3ccccc3)cn12.[Ca+2] (stereo partly drawn) [cGMPSA‐Ca]
Water sorption Δm [2, 7]: 1.9%
Water sorption Δm [2, 8]: 12.4%
Water sorption Δm ([2]; 30 % RH, sorption cycle 1 (S1)): 5.3%
Water sorption Δm [2, 9]: 15.5%
Water sorption Δm ([2]; 60 % RH, sorption cycle 1 (S1)): 7.1%
Water sorption Δm [2, 10]: 22.0%
Water sorption Δm ([2]; 95 % RH, sorption cycle 1 (S1)): 21.9%
Observed Δm [2]: 1.9%
Stable %RH range [2]: 0 %RH
change in mass (Δm) [2]: 22%
enthalpy of decomposition ([6]; DSC): 162.3 J/g
Onset of decomposition (DSC exotherm) [6]: 253.2 °C
pH of mixture ([5]; supplement): 6,88
pH at saturation solubility ([5]; deionized H2O, quadruplicates): 6.9 (±0.5)
solubility ([5]; deionized H2O, quadruplicates): 0.28 (±0.2) mg/mL

O=c1c2nc(Br)n([C@@H]3O[C@@H]4COP(=O)(S)O[C@H]4[C@H]3O)c2nc2[nH]c(-c3ccccc3)cn12 (stereo partly drawn) [cGMPSA‐H]
Water sorption Δm [2, 7]: 0.3%
Water sorption Δm [2, 8]: 5.7%
Water sorption Δm ([2]; 30 % RH, sorption cycle 1 (S1)): 5.3%
Water sorption Δm [2, 9]: 6.7%
Water sorption Δm ([2]; 60 % RH, sorption cycle 1 (S1)): 6.2%
Water sorption Δm [2, 10]: 9.3%
Water sorption Δm ([2]; 95 % RH, sorption cycle 1 (S1)): 9.1%
Onset of decomposition (DSC exotherm) [6]: 163.6 °C and ~ 163 °C
pH of mixture ([5]; supplement): 2,47
pH at saturation solubility ([5]; deionized H2O, quadruplicates): 2.5 (±0.2)
solubility ([5]; deionized H2O, quadruplicates): 1.7 (±0.1) mg/mL
